Active and inactive are the calls of the source. The calls are words filed in the database; no cut-off is given here.
How the values were obtained:
[1] = test system: HepG2; test: Antiproliferative activity against human HepG2 cells measured after 48 hrs by MTT assay; type: functional, cell-based; details: HepG2, 48 h
[2] = test system: MV4-11; test: Antiproliferative activity against human MV4-11 cells measured after 48 hrs by MTT assay; type: functional, cell-based; details: MV4-11, 48 h
[3] = test system: MDA-MB-468; test: Antiproliferative activity against human MDA-MB-468 cells measured after 48 hrs by MTT assay; type: functional, cell-based; details: MDA-MB-468, 48 h
[4] = test system: K562; test: Antiproliferative activity against human K562 cells measured after 48 hrs by MTT assay; type: functional, cell-based; details: K562, 48 h
[5] = target: Serine/threonine-protein kinase B-raf (Homo sapiens, UniProt P15056, V600E); test: Inhibition of recombinant human N-terminal GST-tagged BRAF V600E mutant catalytic domain (416 to 766 residues) expressed in baculovirus expression system using human His6-tagged MEK1 (K97R) as substrate preincubated for 20 mins followed by [33P-gamma]ATP addition and measured after 2 hrs by filter-binding assay
[6] = target: T1, Histone deacetylase 1 (Homo sapiens, UniProt Q13547); test: Inhibition of recombinant full-length human C-terminal FLAG/His-tagged HDAC1 expressed in baculovirus infected Sf9 insect cells at 50 uM using Fluor-de-Lys as substrate measured after 10 mins by fluorescence assay
[7] = target: RAF proto-oncogene serine/threonine-protein kinase (Homo sapiens, UniProt P04049); test: Inhibition of human CRAF using human His6-tagged MEK1 (K97R) as substrate preincubated for 20 mins followed by [33P-gamma]ATP addition and measured after 2 hrs by filter-binding assay
[8] = target: T2, Histone deacetylase 8 (Homo sapiens) (UniProt Q9BY41); test: Inhibition of recombinant full-length human C-terminal His-tagged HDAC8 expressed in baculovirus infected Sf9 insect cells at 50 uM using Fluor-de-Lys as substrate measured after 10 mins by fluorescence assay
T2 sequence (whole entry): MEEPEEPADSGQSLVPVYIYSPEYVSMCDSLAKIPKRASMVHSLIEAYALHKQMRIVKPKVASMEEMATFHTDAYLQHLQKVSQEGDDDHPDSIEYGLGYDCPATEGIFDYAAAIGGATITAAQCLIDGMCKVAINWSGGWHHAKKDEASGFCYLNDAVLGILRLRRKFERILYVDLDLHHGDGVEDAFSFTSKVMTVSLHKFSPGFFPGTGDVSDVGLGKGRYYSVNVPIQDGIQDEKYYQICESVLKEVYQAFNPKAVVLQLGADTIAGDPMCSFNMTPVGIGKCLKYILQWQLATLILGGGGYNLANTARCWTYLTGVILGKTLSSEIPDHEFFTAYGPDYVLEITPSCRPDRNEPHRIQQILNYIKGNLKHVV

[9] = target: T3, Protein deacetylase HDAC6 (Homo sapiens) (UniProt Q9UBN7); test: Inhibition of recombinant human HDAC6 at 50 uM using Fluor-de-Lys as substrate measured after 10 mins by fluorescence assay
T3 sequence (whole entry): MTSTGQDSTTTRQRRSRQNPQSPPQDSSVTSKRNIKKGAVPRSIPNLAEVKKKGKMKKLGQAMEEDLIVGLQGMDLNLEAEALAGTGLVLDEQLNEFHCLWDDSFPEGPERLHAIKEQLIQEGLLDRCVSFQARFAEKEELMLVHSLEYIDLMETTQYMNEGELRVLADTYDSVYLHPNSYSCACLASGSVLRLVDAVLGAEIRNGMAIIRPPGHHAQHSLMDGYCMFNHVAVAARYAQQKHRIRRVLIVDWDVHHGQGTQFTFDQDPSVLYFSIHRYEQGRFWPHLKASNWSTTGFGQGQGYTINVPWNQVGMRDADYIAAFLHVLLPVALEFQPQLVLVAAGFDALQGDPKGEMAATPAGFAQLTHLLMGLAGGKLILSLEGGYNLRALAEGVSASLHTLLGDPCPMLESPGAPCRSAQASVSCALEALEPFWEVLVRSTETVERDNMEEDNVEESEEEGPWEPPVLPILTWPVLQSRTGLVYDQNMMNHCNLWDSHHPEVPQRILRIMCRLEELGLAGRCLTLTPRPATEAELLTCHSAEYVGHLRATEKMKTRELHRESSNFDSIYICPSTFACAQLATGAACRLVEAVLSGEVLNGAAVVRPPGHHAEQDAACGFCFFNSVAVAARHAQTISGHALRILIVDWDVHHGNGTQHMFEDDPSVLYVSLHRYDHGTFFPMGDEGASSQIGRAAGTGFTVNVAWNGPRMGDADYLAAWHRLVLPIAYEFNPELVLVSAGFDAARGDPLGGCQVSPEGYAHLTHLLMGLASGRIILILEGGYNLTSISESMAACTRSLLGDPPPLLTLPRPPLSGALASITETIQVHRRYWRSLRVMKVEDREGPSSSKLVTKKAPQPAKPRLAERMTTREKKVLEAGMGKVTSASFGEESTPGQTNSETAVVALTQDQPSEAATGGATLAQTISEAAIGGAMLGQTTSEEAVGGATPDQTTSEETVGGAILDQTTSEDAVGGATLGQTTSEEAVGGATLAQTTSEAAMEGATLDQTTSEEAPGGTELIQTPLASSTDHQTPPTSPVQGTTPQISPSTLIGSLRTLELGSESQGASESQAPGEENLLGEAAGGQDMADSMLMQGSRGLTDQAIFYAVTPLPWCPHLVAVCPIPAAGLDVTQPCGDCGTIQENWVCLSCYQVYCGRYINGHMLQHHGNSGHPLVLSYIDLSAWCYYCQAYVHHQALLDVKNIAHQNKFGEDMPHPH

[10] = target: T4, Serine/threonine-protein kinase A-Raf (Homo sapiens, UniProt P10398); test: Inhibition of human ARAF using human His6-tagged MEK1 (K97R) as substrate preincubated for 20 mins followed by [33P-gamma]ATP addition and measured after 2 hrs by filter-binding assay
T4 sequence (P10398 whole entry): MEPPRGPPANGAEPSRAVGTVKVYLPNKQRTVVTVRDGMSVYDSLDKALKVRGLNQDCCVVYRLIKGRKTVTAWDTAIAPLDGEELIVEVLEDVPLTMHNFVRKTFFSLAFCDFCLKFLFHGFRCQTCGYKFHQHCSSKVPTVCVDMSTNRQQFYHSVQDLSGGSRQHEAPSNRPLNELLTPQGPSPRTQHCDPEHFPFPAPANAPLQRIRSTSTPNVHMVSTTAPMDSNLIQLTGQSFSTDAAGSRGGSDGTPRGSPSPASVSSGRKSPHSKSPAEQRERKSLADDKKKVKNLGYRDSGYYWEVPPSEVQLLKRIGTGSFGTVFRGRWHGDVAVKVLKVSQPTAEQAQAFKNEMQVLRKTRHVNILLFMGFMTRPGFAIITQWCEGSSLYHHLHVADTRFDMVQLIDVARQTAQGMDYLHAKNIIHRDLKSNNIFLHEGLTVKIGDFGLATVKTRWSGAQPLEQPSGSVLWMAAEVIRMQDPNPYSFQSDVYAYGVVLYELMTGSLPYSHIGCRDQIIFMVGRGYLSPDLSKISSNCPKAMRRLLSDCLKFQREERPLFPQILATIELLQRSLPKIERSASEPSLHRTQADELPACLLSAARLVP

[11] = target: T1, Histone deacetylase 1; test: Inhibition of recombinant full-length human C-terminal FLAG/His-tagged HDAC1 expressed in baculovirus infected Sf9 insect cells using Fluor-de-Lys as substrate measured after 10 mins by fluorescence assay
[12] = target: T1, Histone deacetylase 1; test: Inhibition of HDAC1 (unknown origin)

T1 sequence (Q13547 whole entry): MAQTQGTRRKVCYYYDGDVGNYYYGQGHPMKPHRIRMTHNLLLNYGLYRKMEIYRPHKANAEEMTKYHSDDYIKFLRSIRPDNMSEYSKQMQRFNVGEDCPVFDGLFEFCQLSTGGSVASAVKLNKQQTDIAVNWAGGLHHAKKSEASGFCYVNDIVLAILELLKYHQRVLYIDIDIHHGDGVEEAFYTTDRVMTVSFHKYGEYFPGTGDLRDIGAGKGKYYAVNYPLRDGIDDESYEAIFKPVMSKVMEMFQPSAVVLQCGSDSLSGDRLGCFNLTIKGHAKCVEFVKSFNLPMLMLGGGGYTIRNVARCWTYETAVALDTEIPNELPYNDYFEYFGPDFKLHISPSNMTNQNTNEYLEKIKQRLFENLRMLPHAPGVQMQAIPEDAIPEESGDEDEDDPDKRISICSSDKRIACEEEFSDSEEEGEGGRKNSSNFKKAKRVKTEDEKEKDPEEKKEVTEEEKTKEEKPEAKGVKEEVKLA
Sequence of RAF proto-oncogene serine/threonine-protein kinase (P04049 whole entry): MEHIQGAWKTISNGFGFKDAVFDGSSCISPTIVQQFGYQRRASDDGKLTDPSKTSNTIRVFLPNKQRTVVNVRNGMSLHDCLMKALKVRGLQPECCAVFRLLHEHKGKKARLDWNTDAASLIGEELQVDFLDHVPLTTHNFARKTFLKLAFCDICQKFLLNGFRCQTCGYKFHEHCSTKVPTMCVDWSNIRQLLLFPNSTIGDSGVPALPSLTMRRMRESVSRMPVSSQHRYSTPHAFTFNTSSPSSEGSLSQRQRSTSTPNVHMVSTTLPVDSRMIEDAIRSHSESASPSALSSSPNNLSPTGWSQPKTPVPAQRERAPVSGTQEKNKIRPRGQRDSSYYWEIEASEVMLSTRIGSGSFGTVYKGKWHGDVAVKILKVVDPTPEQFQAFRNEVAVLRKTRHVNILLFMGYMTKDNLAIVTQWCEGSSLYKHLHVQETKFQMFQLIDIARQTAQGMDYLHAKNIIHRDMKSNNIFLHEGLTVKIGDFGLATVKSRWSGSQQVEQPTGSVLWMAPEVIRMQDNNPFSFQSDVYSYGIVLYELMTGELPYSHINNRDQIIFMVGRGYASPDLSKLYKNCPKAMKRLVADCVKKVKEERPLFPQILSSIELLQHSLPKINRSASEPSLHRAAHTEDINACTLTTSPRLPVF

Compound	IC50 [1] [nM]	IC50 [2] [nM]	IC50 [3] [nM]	IC50 [4] [nM]	IC50 [5] [nM]	inhibition [6]	IC50 [7] [nM]	inhibition [8]	inhibition [9]	IC50 [10] [nM]	IC50 [11] [nM]	IC50 [12] [nM]
CNC(=O)c1cc(Oc2ccc(NC(=O)Nc3ccc(Cl)c(C(F)(F)F)c3)cc2)ccn1 [SORAFENIB]	3040	510	12200	17200								
CN(C)C(=O)c1cc(Oc2ccc(NC(=O)c3ccc(Cl)c(C(F)(F)F)c3)cc2)ccc1N					4170	inactive						
CNC(=O)c1cc(Oc2ccc(NC(=O)c3ccc(Cl)c(C(F)(F)F)c3)cc2)ccc1N	1330	1120	570	2730	73		92	inactive	inactive	183	1170	
CNC(=O)c1cc(Oc2ccc(NC(=O)c3ccc(F)cc3)cc2)ccc1N	7560	5320	5760	6430	303						7650	
CNC(=O)c1cc(Oc2ccc(NC(=O)c3cccnc3)cc2)ccc1N					1780						5230	5230
CNC(=O)c1cc(Oc2ccc(NC(=O)c3cccc(N)c3)cc2)ccc1N					3260						1030	
Nc1cc(F)ccc1NC(=O)c1ccc(CNC(=O)/C=C/c2cccnc2)cc1 [TUCIDINOSTAT]	4890	3730	2650	870				inactive	inactive			
CNC(=O)c1cc(Oc2ccc(NC(=O)c3ccc(OC)cc3)cc2)ccc1N	6650	1870	950	5220	187		652	inactive	inactive	211	2460	
CCNC(=O)c1cc(Oc2ccc(NC(=O)c3ccc(Cl)c(C(F)(F)F)c3)cc2)ccc1N					354						1620	
CNC(=O)c1cc(Oc2ccc(NC(=O)c3ccc(N)cc3)cc2)ccc1N					942						2270	
CNC(=O)c1cc(Oc2ccc(NC(=O)c3ccc(Cl)cc3)cc2)ccc1N	5130	9230	4240	7120	165						7110	
NC(=O)c1cc(Oc2ccc(NC(=O)c3ccc(Cl)c(C(F)(F)F)c3)cc2)ccc1N					688						2790	
CNC(=O)c1cc(Oc2ccc(NC(=O)c3ccccc3)cc2)ccc1N					342						6190	
CNC(=O)c1cc(Oc2ccc(NC(=O)c3cccc(O)c3)cc2)ccc1N					4060						1950	
CNC(=O)c1cc(Oc2ccc(NC(=O)c3ccc4ccccc4c3)cc2)ccc1N	7280	8210	3910	10300	237						8210	

— ChEMBL document CHEMBL4390702, “Discovery of novel phenoxybenzamide analogues as Raf/HDAC dual inhibitors” (Bioorg Med Chem Lett, 2019)
